The values that follow come from article PMC8286840, “Identifying SARS-CoV-2 antiviral compounds by screening for small molecule inhibitors of Nsp3 papain-like protease” (Biochemical Journal, 2021).

The target of experiment [1] is T1, SARS-CoV-2 PLpro (nsp3 1564–1878) (Severe acute respiratory syndrome coronavirus 2, UniProt P0DTD1). Put plainly: biochemical. More on the design: FRET-quenched peptide (Pro3) cleavage by PLpro, 10 min pre-incubation, slope over 20 min, normalised to no-compound control. To be noted: high concentration screen, read-out: % of control remaining.
For experiment [2], the target named is T1, SARS-CoV-2 PLpro (nsp3 1564–1878). Put plainly: biochemical. More on the design: FRET-quenched peptide (Pro3) cleavage by PLpro, 10 min pre-incubation, slope over 20 min, normalised to no-compound control. As to conditions: low concentration screen, read-out: % of control remaining.

Each structure is given as a SMILES string. Where a name gives a salt, the structure may show the parent alone. Read-outs that look alike come from different tables or passages of the source.

Take `O=C1CC2(CCCC2)CC(=O)N1CCCCN1CCN(c2ncccn2)CC1` [Buspirone]: the remaining activity at 3.75 µM in experiment [1] (Well no.=2179) was found to be 105%. For the compound `COc1cc(Nc2ncc3c(n2)-c2ccc(Cl)cc2C(c2c(F)cccc2OC)=NC3)ccc1C(=O)O` [MLN8237 (Alisertib)], the remaining activity at 3.75 µM in experiment [1] (Well no.=4675) worked out at 104%. `CN(C)CCCN1c2ccccc2CCc2ccccc21` [Imipramine.HCl]: the remaining activity at 3.75 µM in experiment [1] (Well no.=1688) was determined as 102%. In the case of `CC(C)(O)c1ccccc1CC[C@@H](SCC1(CC(=O)O)CC1)c1cccc(/C=C/c2ccc3ccc(Cl)cc3n2)c1` [Montelukast], the remaining activity at 3.75 µM in experiment [1] (Well no.=1615) was 101%. Consider `CCC1(c2ccc(N)cc2)CCC(=O)NC1=O` (racemic) [DL-Aminoglutethimide], for which the remaining activity at 1.25 µM in experiment [2] (Well no.=2117) turned out to be 99.9%. Consider `CCCCCCCCCCCCCCCC(=O)NCCO` [Palmitoylethanolamide], for which the remaining activity at 3.75 µM in experiment [1] (Well no.=900) worked out at 106%.

As for `COc1cc2nc(N3CCN(C(=O)c4ccco4)CC3)nc(N)c2cc1OC` [Prazosin hydrochloride], the remaining activity at 1.25 µM in experiment [2] (Well no.=1349) stood at 98.8%. For `CC(=O)[C@H]1CC[C@H]2[C@@H]3CC[C@H]4C[C@H](O)CC[C@]4(C)[C@H]3CC[C@]12C` [5alpha-Pregnan-3alpha-ol-20-one], the remaining activity at 1.25 µM in experiment [2] (Well no.=1353) stood at 104%. Take `O=c1[nH]c2ccccc2n1CCN1CCN(c2cccc(C(F)(F)F)c2)CC1` [Flibanserin]: the remaining activity at 1.25 µM in experiment [2] (Well no.=6855) worked out at 102%. As for `Cc1cc2c(cc1Cl)N(C(=O)Nc1ccc(Oc3cccnc3C)nc1)CC2` [SB 242084], in experiment [2] (Well no.=7137), the remaining activity at 1.25 µM worked out at 103%. `CC[C@H](C)C(=O)O[C@H]1C[C@@H](C)C=C2C=C[C@H](C)[C@H](CC[C@@H]3C[C@@H](O)CC(=O)O3)[C@H]21` [Lovastatin]: the remaining activity at 1.25 µM in experiment [2] (Well no.=1830) stood at 99.3%.

Turning to `CC/C(=C(/CC)c1ccc(O)cc1)c1ccc(O)cc1` [Diethylstilbestrol], the remaining activity at 3.75 µM in experiment [1] (Well no.=1982) turned out to be 98.4%. Consider `CC(C)NCC(O)c1ccc(O)c(O)c1` (racemic), for which the remaining activity at 1.25 µM in experiment [2] (Well no.=1107) came out at 97.8%.

Take `CC(CN1c2ccccc2Sc2ccccc21)N(C)C` (centres unmarked) [Promethazine (hydrochloride)]: the remaining activity at 1.25 µM in experiment [2] (Well no.=6811) is 99.3%. Take `Oc1cc2c(cc1O)C(c1ccccc1)CNCC2` (centres unmarked) [SKF 38393 (hydrochloride)]: the remaining activity at 3.75 µM in experiment [1] (Well no.=7231) was 97.8%.

Take `O=C(Nc1cccc2c(=O)cc(-c3nnn[nH]3)oc12)c1ccc(OCCCCc2ccccc2)cc1` [Pranlukast (hemihydrate)]: the remaining activity at 3.75 µM in experiment [1] (Well no.=6603) was 102%. On to `Cc1cccc(C)c1NC1=NCCCS1` [Xylazine hydrochloride], for which, in experiment [1] (Well no.=1388), the remaining activity at 3.75 µM was determined as 98.8%. With `CN1C[C@@H](NS(=O)(=O)N(C)C)C[C@@H]2c3cccc4c3c(cn4C)C[C@H]21` [Mesulergine], the remaining activity at 3.75 µM in experiment [1] (Well no.=1692) is 106%. Take `CN(C)CC/C=C1/c2ccccc2COc2ccc(CC(=O)O)cc21` [Olopatadine]: the remaining activity at 3.75 µM in experiment [1] (Well no.=1786) came out at 103%.

Consider `CN1[C@@H]2CC[C@H]1C[C@@H](OC(=O)C(CO)c1ccccc1)C2` (some centres unmarked) [Atropine], for which the remaining activity at 1.25 µM in experiment [2] (Well no.=1552) amounted to 100%. On to `C=CCc1ccccc1OCC(O)CNC(C)C` (centres unmarked) [Alprenolol.HCl], for which the remaining activity at 1.25 µM in experiment [2] (Well no.=1686) was 103%. Regarding `Nc1c2c(nc3ccccc13)CCCC2` [Tacrine], the remaining activity at 3.75 µM in experiment [1] (Well no.=1675) amounted to 105%. For `COc1ccc([C@@H]2Sc3ccccc3N(CCN(C)C)C(=O)[C@@H]2OC(C)=O)cc1` [Diltiazem hydrochloride], the remaining activity at 3.75 µM in experiment [1] (Well no.=399) came to 103%. Take `CCN(CC)CCCC(C)Nc1nc(C)cc(Nc2ccc3nc(C)cc(N)c3c2)n1` (centres unmarked) [NSC 23766 (trihydrochloride)]: in experiment [2] (Well no.=7865), the remaining activity at 1.25 µM was found to be 98.1%. Consider `O=C(CCCN1CCC2(CC1)C(=O)NCN2c1ccccc1)c1ccc(F)cc1` [Spiperone.HCl], for which, in experiment [1] (Well no.=1648), the remaining activity at 3.75 µM was 106%.

With `S=C(S)O[C@@H]1C[C@@H]2C[C@@H]1[C@H]1CCC[C@@H]21` [D609], the remaining activity at 3.75 µM in experiment [1] (Well no.=4133) is 100%.

Take `CNCC[C@H](Oc1ccc(C(F)(F)F)cc1)c1ccccc1` [S-(+)-Fluoxetine hydrochloride]: in experiment [1] (Well no.=753), the remaining activity at 3.75 µM is 99.7%. As to `Cc1cc(C(C)(C)C)c(O)c(C)c1CC1=NCCN1` [Oxymetazoline.HCl], the remaining activity at 3.75 µM in experiment [1] (Well no.=1683) amounted to 105%. As for `CC(=O)O[C@H]1C(=O)[C@@]2(C)[C@H]([C@H](OC(=O)c3ccccc3)[C@]3(O)C[C@H](OC(=O)[C@H](O)[C@@H](NC(=O)c4ccccc4)c4ccccc4)C(C)=C1C3(C)C)[C@]1(OC(C)=O)CO[C@@H]1C[C@@H]2O` [Taxol], the remaining activity at 1.25 µM was 92.6% in experiment [2] (Well no.=1180), 103% in experiment [2] (Well no.=1999) and 106% in experiment [2] (Well no.=3180). For the compound `O=C(CCN1CCN(C(=O)OCc2cc(Cl)cc(Cl)c2)CC1)c1ccc2[nH]c(=O)oc2c1` [3,5-dichlorobenzyl 4-[3-oxo-3-(2-oxo-2,3-dihydro-1,3-benzoxazol-6-yl)propyl]-1-piperazinecarboxylate], the remaining activity at 3.75 µM in experiment [1] (Well no.=5605) was found to be 105%.

Take `O=c1cc(-c2cccc3c2Sc2ccccc2S3)oc(N2CCOCC2)c1` [ATM Kinase Inhibitor]: the remaining activity at 3.75 µM in experiment [1] (Well no.=2310) was 104%. As to `C1COC(NC(C2CC2)C2CC2)=N1` [Rilmenidine phosphate], in experiment [1] (Well no.=1695), the remaining activity at 3.75 µM came out at 106%. Turning to `CN(C)CCCN1c2ccccc2Sc2ccc(C(F)(F)F)cc21` [Triflupromazine hydrochloride], in experiment [1] (Well no.=1285), the remaining activity at 3.75 µM turned out to be 105%. `CC(N)(C(=O)O)c1ccc(C(=O)O)cc1` (racemic): the remaining activity at 3.75 µM in experiment [1] (Well no.=880) worked out at 111%. With `Cc1noc(-c2ccc(-c3ccc(CC(=O)O)cc3)cc2)c1NC(=O)O[C@H](C)c1ccccc1` [AM095 (free acid)], in experiment [1] (Well no.=7853), the remaining activity at 3.75 µM worked out at 101%. Regarding `Cc1nccn1CC1CCc2c(c3ccccc3n2C)C1=O` (centres unmarked) [Ondansetron (hydrochloride dihydrate)], the remaining activity at 3.75 µM in experiment [1] (Well no.=7521) is 105%. In the case of `C[N+](C)(C)[C@@H](Cc1c[nH]c(=S)[nH]1)C(=O)[O-]` [L-Ergothioneine], the remaining activity at 3.75 µM in experiment [1] (Well no.=3891) stood at 100%. Consider `COc1ccc(Cl)cc1NC(=O)Nc1cc(C)nc2ccccc12` [IGF-1R Inhibitor II], for which the remaining activity at 3.75 µM in experiment [1] (Well no.=2451) came to 104%.

Take `Oc1cc2c(cc1O)C(c1ccccc1)CNCC2` (racemic): in experiment [1] (Well no.=542), the remaining activity at 3.75 µM came out at 98.7%. Take `CCCC(=O)Nc1ccc(OCC(O)CNC(C)C)c(C(C)=O)c1` (centres unmarked) [Acebutolol HCl]: the remaining activity at 3.75 µM in experiment [1] (Well no.=5074) is 103%. On to `Cc1ccc(C(=O)Nc2ccc(S(=O)(=O)O)c3cc(S(=O)(=O)O)cc(S(=O)(=O)O)c23)cc1NC(=O)c1cccc(NC(=O)Nc2cccc(C(=O)Nc3cc(C(=O)Nc4ccc(S(=O)(=O)O)c5cc(S(=O)(=O)O)cc(S(=O)(=O)O)c45)ccc3C)c2)c1` [Suramin hexasodium], for which, in experiment [1] (Well no.=1469), the remaining activity at 3.75 µM was determined as 102%. Turning to `CC(C(=O)O)c1cccc(C(=O)c2ccccc2)c1` (centres unmarked) [Ketoprofen], the remaining activity at 3.75 µM in experiment [1] (Well no.=973) was found to be 101%; in experiment [1] (Well no.=1576) it was 98.4%. As for `COC(=O)[C@H]1[C@H]2C[C@H]3c4[nH]c5ccccc5c4CCN3C[C@H]2CC[C@@H]1O` [Rauwolscine (hydrochloride)], the remaining activity at 3.75 µM in experiment [1] (Well no.=8155) stood at 99.9%. Take `CN1C[C@@H]2c3ccccc3Oc3ccc(Cl)cc3[C@H]2C1` (racemic) [Asenapine]: in experiment [1] (Well no.=5151), the remaining activity at 3.75 µM was 105%. For the compound `CN1[C@@H](CC(=O)c2ccccc2)CCC[C@H]1C[C@H](O)c1ccccc1` [Lobeline], in experiment [1] (Well no.=1663), the remaining activity at 3.75 µM came to 103%. On to `CCC(COC(=O)c1cc(OC)c(OC)c(OC)c1)(c1ccccc1)N(C)C` (centres unmarked) [Trimebutine (maleate)], for which the remaining activity at 3.75 µM in experiment [1] (Well no.=6655) is 107%. Regarding `CN1CCN(C2Cc3ccccc3Sc3ccc(Cl)cc32)CC1` (centres unmarked) [Octoclothepin maleate salt], in experiment [1] (Well no.=5506), the remaining activity at 3.75 µM turned out to be 108%.
